How the values were obtained:
[1] = test system: kidney disease model rats; assay: Action to lower blood pressure in kidney disease model rats; format: in vivo, Sprague-Dawley female rats; settings: 20 mg/kg oral; for action of lowering the blood pressure: in comparison with the control group; for Blood pressure: systolic, tail cuff, average, two days after administration, control 210
Procedure: In this Example, an action to lower blood pressure was evaluated. That is, each of 2-ethoxy-1-[[4'- (2'-N,N-dimethylamino-ethoxycarbonyl) phenyl]methyl]-1H-benzimidazole-6-carboxylic acid morpholide (Compound No. 13) prepared in Example 6, 2-ethoxy-1-[[4'-(2"-morpholinoethoxycarbonyl)-phenyl]methyl]-1H-benzimidazole-6-carboxylic acid piperidinamide (Compound No. 57) prepared in Example 28, or the reference substance was forcibly orally administered to kidney disease model rats, and the action of lowering the blood pressure was observed. The kidney disease model rats were prepared by a ligature of branches of renal artery in accordance with a conventional method. Namely, the left hilum renalis of Sprague-Dawley female rats was exposed under anesthesia, and one of four secondary branches of the renal artery was left unligated, while the remaining three branches were ligated, respectively. After a week, the hilum renalis (artery, vein, and ureter) of the right kidney were further ligated to thereby prepare rats whose renal function was lowered to approximately 1/8 of the normal function. Each group consisted of eight rats. The drugs to be tested (20 mg/kg) were administered to each administering group, and only water was administered to a control group. Two days after the administration, the systolic blood pressure was measured by the tail cuff method using a blood pressure measuring apparatus (UR^5000; Ueda).

[2] = biological target: T1, angiotensin II receptor subtype 1 (AT1) (Oryctolagus cuniculus, UniProt P34976); assay: Binding assay, angiotensin II receptor subtype 1 (AT1); parameters: species or system rabbits
T1 construct: from adrenal glands in rabbits; from tissue; host or cells: adrenal glands of rabbits
T1 sequence (P34976 1-359): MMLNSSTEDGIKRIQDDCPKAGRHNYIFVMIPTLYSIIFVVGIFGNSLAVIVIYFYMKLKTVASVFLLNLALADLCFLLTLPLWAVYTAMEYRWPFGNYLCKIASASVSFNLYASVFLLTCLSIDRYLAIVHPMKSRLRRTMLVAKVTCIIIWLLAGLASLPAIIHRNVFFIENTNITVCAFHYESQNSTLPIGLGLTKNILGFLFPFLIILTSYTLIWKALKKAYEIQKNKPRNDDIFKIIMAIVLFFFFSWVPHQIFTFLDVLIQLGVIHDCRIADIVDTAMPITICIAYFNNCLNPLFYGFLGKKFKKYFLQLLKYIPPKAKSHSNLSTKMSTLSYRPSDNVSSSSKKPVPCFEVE
Procedure: In this Example, a binding assay was carried out. That is, the affinity to the angiotensin II receptor subtype 1 orsubtype 2 was evaluated in accordance with the method described in Biochem. Pharmacol., 33, 4057-4062 (1984).
Specifically, the measurement of the total binding in the presence of each drug was performed as follows:
A mixture (final volume=0.25 ml) of a drug in a given concentration (the drug was dissolved in DMSO, and diluted to a double volume with a buffer attached to a drug discovery system to prepare a sample for the assay; 0.025 ml), a tracer (0.025 ml), and receptors (0.2 ml) was incubated [in the case of the angiotensin II receptor subtype 1 (AT1), at room temperature for 3 hours, and in the case of the subtype 2 (AT2), at 37° C. for 1 hour]. Then, the reaction mixture was filtered with suction (a GF/C filter was used in AT1, and a GF/B filter was used in AT2). The filter papers after filtration with suction (the tracer bound to the receptors) were counted by a γ-well counter (ARC-500, Aloka). The non-specific bindings were measured by repeating the above method, except that a large excess amount of a displacer was added. The specific binding of the drug in the given concentration was calculated by subtracting the non-specific binding from the total binding, respectively.
tracer: ^3 H-angiotensin II

[3] = test system: kidney disease model rats; assay: Action to kidney diseases, renal function indicatory values; format: in vivo, Sprague-Dawley female rats; settings: for Creatinine clearance / blood urea nitrogen value / serum creatinine value / Creatinine / Blood urea nitrogen: 20 mg/kg/day, two weeks; for Creatinine / Blood urea nitrogen: serum; for Creatinine: control 2.0; for Blood urea nitrogen: control 100; for effects on renal function compared with reference substance: vs DuP753
Procedure: The kidney disease model rats were prepared by a ligature of branches of renal artery in accordance with a conventional method. Namely, the left hilum renalis of Sprague-Dawley female rats was exposed under anesthesia, and one of four secondary branches of the renal artery was left unligated, while the remaining three branches were ligated, respectively. After a week, the hilum renalis (artery, vein, and ureter) of the right kidney were further ligated to thereby prepare rats whose renal function was lowered to approximately 1/8 of the normal function. Each group consisted of eight rats. The drugs to be tested (20 mg/kg) were administered to each administering group, and only water was administered to a control group. Two days after the administration, the systolic blood pressure was measured by the tail cuff method using a blood pressure measuring apparatus (UR^5000; Ueda).
In this Example, an action to kidney diseases was evaluated on the basis of a renal function indicatory value.
Fifteen groups (8 rats per group) were prepared in a manner such that there was no major difference between the groups in the serum creatinine value and the blood urea nitrogen value indicating renal function. The rats in each group were allowed to freely take up food and water. […] To the rats in the control group, only water was forcibly orally administered every day. After two weeks, 0.2 ml of blood was collected from the carotid artery of the rats under anesthesia, and centrifuged to obtain serum. Using 25 μl of the serum, the serum creatinine (Scr) was measured by a creatinine analytical instrument (Beckman). Using 10 μl of the serum, the blood urea nitrogen (BUN) was measured by a BUN analytical instrument (Beckman). The creatinine clearance was evaluated as follows:
After the serum creatinine measurement, rats were placed in urinary metabolic cages for 24 hours to collect urine. A urinary creatine concentration (Ucr) was measured by a creatinine analytical instrument, and a total volume of urination (Uvol) was also measured. The creatinine clearance (CCr) was calculated by the following formula: [formula]
In the above formula, the unit of "Ucr" and "Scr" is "mg/ml" and the unit of "Uvol" is "ml".

SHR rats = assay: Action on weight of heart in SHR rats; format: in vivo; settings: 20 weeks; for Relative weight ratio / Heart weight / Blood pressure / Body weight: 20 mg/kg oral in drinking solution, average±standard deviation; for Relative weight ratio: control 0.338 ± 0.012; for Heart weight: control 1.430 ± 0.082; for Blood pressure: control 224 ± 49; for Body weight: control 423 ± 17; for heart weight based on hypercardia / lowering of blood pressure / myocardiopathy: 20 mg/kg
Procedure: In this Example, an action on a weight of a heart was evaluated. More particularly, 21-week-old SHR rats were divided into a control group (8 rats) and a test group (7 rats). The rats in the test group were allowed to freely drink a solution prepared by dissolving 2-ethoxy-1-[[4'-(2"-N,N-dimethylamino-ethoxycarbonyl)phenyl]methyl]-1H-benzimidazole-6-carboxylic acid morpholide (Compound No. 13) prepared in Example 6 or 2-ethoxy-1-[[4'-(2'-morpholinoethoxycarbonyl)-phenyl]methyl]-1H-benzimidazole-6-carboxylic acid piperidinamide (Compound No. 57) prepared in Example 28 for 20 weeks (20 mg/kg). After the oral administration was finished, the heart was taken, and the weight of the heart was measured.

Compound | action of lowering the blood pressure [1] | Blood pressure [1] [mmHg] | inhibitory effect / binding activity / antagonism at angiotensin II receptor [2] | Creatinine clearance ([3]; control 0.22) [mL/min] | Creatinine clearance ([3]; vs control) | blood urea nitrogen value ([3]; vs control) | serum creatinine value ([3]; vs control) | Creatinine [3] [mg/dL] | Blood urea nitrogen [3] [mg/dL] | effects on renal function compared with reference substance [3] | Relative weight ratio (SHR rats) [%] | Heart weight (SHR rats) [g] | Blood pressure (SHR rats) [mmHg] | Body weight (SHR rats) [g] | heart weight based on hypercardia (SHR rats) | lowering of blood pressure (SHR rats) | myocardiopathy (SHR rats)
CCOc1nc2ccc(C(=O)N3CCOCC3)cc2n1Cc1ccc(C(=O)OCCN(C)C)cc1 [Compound No. 13, 2-ethoxy-1-[[4'-(2"-N,N-dimethylaminoethoxycarbonyl)phenyl]methyl]-1H-benzimidazole-6-carboxylic acid morpholide] | an influence on the blood pressure was not substantially observed | 208 | do not substantially exhibit a conventional angiotensin II receptor antagonism | 0.35 | clearly improved | clearly became lower values | clearly became lower values | 1.5 | 75 | comparable to those of the reference substance | 0.328 ± 0.007 | 1.392 ± 0.034 | 232 ± 12 | 424 | significantly reduced | without inducing a lowering of blood pressure | suppresses myocardiopathy
CCOc1nc2ccc(C(=O)N3CCCCC3)cc2n1Cc1ccc(C(=O)OCCN2CCOCC2)cc1 [Compound No. 57, 2-ethoxy-1-[[4'-(2"-morpholinoethoxycarbonyl)phenyl]methyl]-1H-benzimidazole-6-carboxylic acid piperidinamide] | an influence on the blood pressure was not substantially observed | 205 | do not substantially exhibit a conventional angiotensin II receptor antagonism | 0.33 | clearly improved | clearly became lower values | clearly became lower values | 1.5 | 72 | comparable to those of the reference substance | 0.324 ± 0.012 | 1.390 ± 0.077 | 207 ± 14 | 429 | significantly reduced | without inducing a lowering of blood pressure | suppresses myocardiopathy

Reference: US6242445A, “Benzimidazole derivative” (Kureha Chemical Industry Co., Ltd., priority 1998, dated 2001)
